ChEMBL document CHEMBL1926660, “4-Aminoethylpiperazinyl aryl ketones with 5-HT₁A/5-HT₇ selectivity” (Bioorg Med Chem, 2012)

Assays:
[1] = molecular target: T1, 5-hydroxytryptamine receptor 1A (Homo sapiens) (UniProt P08908); assay: Displacement of [3H]LSD from human 5-HT1A receptor expressed in CHO-K1 cells at 10 uM; format: cell-based
T1 sequence (whole entry): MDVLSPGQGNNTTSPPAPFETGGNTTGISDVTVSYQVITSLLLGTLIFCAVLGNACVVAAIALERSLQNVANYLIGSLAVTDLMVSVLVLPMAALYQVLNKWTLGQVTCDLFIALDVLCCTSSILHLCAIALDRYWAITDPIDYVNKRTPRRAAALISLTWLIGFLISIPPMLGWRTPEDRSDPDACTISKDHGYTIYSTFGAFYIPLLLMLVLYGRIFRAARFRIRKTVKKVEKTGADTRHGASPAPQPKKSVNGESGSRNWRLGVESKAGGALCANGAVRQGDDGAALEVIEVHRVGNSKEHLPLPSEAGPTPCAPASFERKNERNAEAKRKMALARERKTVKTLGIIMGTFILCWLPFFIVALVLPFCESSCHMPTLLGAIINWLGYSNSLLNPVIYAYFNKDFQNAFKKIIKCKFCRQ

[2] = molecular target: 5-hydroxytryptamine receptor 7 (Homo sapiens) (UniProt P34969); assay: Displacement of […] from human 5-HT7 receptor expressed in HEK293 cells at 10 uM; format: cell-based
Sequence of 5-hydroxytryptamine receptor 7 (Homo sapiens) (P34969 whole entry): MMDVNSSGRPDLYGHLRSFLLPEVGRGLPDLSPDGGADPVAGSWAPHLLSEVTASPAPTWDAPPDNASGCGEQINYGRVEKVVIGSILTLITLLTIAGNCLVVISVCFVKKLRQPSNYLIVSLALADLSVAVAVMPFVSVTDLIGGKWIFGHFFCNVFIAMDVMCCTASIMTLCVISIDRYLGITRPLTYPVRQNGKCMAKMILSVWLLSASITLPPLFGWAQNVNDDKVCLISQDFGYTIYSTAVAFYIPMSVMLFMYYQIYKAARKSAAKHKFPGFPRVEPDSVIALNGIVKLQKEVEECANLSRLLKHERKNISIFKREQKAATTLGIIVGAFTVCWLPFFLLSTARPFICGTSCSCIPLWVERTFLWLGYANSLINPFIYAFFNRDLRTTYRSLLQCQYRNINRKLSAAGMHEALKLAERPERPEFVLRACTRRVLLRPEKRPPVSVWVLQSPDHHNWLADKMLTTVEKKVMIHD

Row | Structure (SMILES) | inhibition [1] [%] | inhibition [2] [%]
1 | O=C(c1cc(C(F)(F)F)cc(C(F)(F)F)c1)N1CCN(CCNCCCc2nc3ccccc3[nH]2)CC1 | 87.7 | 45.4
2 | CC(C)(C)CCNCCN1CCN(C(=O)c2cc(Cl)cc(Cl)c2)CC1 | 33.7 | -0.6
3 | O=C(c1ccc(Cl)c(Cl)c1)N1CCN(CCNCCCc2nc3ccccc3[nH]2)CC1 | 49.5 | 56.2
4 | CC(C)c1cc(CNCCN2CCN(C(=O)c3ccc(Cl)c(Cl)c3)CC2)on1 | 76.4 | 16.1
5 | O=C(c1ccc(Cl)cc1)N1CCN(CCNCCCc2nc3ccccc3[nH]2)CC1 | 47.5 | 36.8
6 | CC(C)(C)CCNCCN1CCN(C(=O)c2ccc(Cl)c(Cl)c2)CC1 | 65.2 | 2
7 | CC(C)(C)CCNCCN1CCN(C(=O)c2cc(C(F)(F)F)cc(C(F)(F)F)c2)CC1 | -4.4 | -0.3
8 | CC(C)c1cc(CNCCN2CCN(C(=O)c3cc(Cl)cc(Cl)c3)CC2)on1 | 43.2 | -0.2

Results, then the compound that gave them:

Row | inhibition [1] [%] | inhibition [2] [%] | Structure (SMILES)
9 | 13 | -0.3 | CC(C)c1cc(CNCCN2CCN(C(=O)c3cc(C(F)(F)F)cc(C(F)(F)F)c3)CC2)on1
10 | 56.5 | 93.6 | CC(C)c1cc(CNCCN2CCN(C(=O)c3ccc(Cl)cc3)CC2)on1
11 | 90.1 | 62.7 | O=C(c1cc(Cl)cc(Cl)c1)N1CCN(CCNCCCc2nc3ccccc3[nH]2)CC1
12 | 36.7 | -0.6 | CC(C)(C)CCNCCN1CCN(C(=O)c2ccc(Cl)cc2)CC1
